Measurements: PubChem BioAssay AID2060897 (Molecular Pharmacology Branch, DTP, NCI, 2025)

Test system: 966289-007-R4-J1-PDC complex spheroid viability
Assay: Anticancer human tumor 966289-007-R4-J1-PDC patient-derived pancreatic adenocarcinoma cell line growth inhibition [RAS]
Conditions: for IC50: curve of first compound; for viability, T/C: stronger effect = lower value
Summary of the method: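 Tumour cells grown as complex spheroids with HUVEC endothelial cells and mesenchymal stem cells, treated with RAS pathway inhibitor combinations. Each agent spans half-log steps from near clinical Cmax, or 10 microM where Cmax is unknown.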

[1] = second compound 0.0316 µM, first compound 0.0316 µM
[2] = second compound 0.0316 µM, first compound 0.1 µM
[3] = second compound 0.0316 µM, first compound 0.316 µM
[4] = second compound 0.0316 µM, first compound 1 µM
[5] = second compound 0.1 µM, first compound 0.0316 µM
[6] = second compound 0.1 µM, first compound 0.1 µM
[7] = second compound 0.1 µM, first compound 0.316 µM
[8] = second compound 0.1 µM, first compound 1 µM
[9] = second compound 0.316 µM, first compound 0.0316 µM
[10] = second compound 0.316 µM, first compound 0.1 µM
[11] = second compound 0.316 µM, first compound 0.316 µM
[12] = second compound 0.316 µM, first compound 1 µM
[13] = second compound 1 µM, first compound 0.0316 µM
[14] = second compound 1 µM, first compound 0.1 µM
[15] = second compound 1 µM, first compound 0.316 µM
[16] = second compound 1 µM, first compound 1 µM
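Note: spheroids exposed to agents for one week before readout.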
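Throughout, for viability, T/C: percent viability relative to DMSO vehicle control wells as 100%.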

`CC(C)NCC(C(=O)N1CCN(c2ncnc3c2C(C)CC3O)CC1)c1ccc(Cl)cc1` (stereo unspecified) + C=CC(=O)N1CCN(c2nc(OCC3CCCN3C)nc3c(F)c(-c4nc(N)cc(C)c4C(F)(F)F)c(Cl)cc23)C(C)C1 showed an IC50 (second compound 0.00316 µM) of 5.59 µM, an IC50 (second compound 0.01 µM) of 5.17 µM and an IC50 (second compound 0.0316 µM) of 5.85 µM. The IC50 (second compound 0.1 µM) was 5.45 µM, the IC50 (second compound 0.316 µM) was 5.98 µM and the IC50 (second compound 1 µM) was 5.35 µM. It also gave a viability, T/C (second compound 0.00316 µM, first compound 0.0316 µM) of 99.8%, a viability, T/C (second compound 0.00316 µM, first compound 0.1 µM) of 85.1% and a viability, T/C (second compound 0.00316 µM, first compound 0.316 µM) of 112%. It also gave a viability, T/C (second compound 0.00316 µM, first compound 1 µM) of 101%, a viability, T/C (second compound 0.00316 µM, first compound 3.16 µM) of 70.1% and a viability, T/C (second compound 0.00316 µM, first compound 10 µM) of 29.5%. It also gave a viability, T/C (second compound 0.01 µM, first compound 0.0316 µM) of 105%, a viability, T/C (second compound 0.01 µM, first compound 0.1 µM) of 96.7% and a viability, T/C (second compound 0.01 µM, first compound 0.316 µM) of 118%. The viability, T/C (second compound 0.01 µM, first compound 1 µM) was 99.5%, the viability, T/C (second compound 0.01 µM, first compound 3.16 µM) was 61.9% and the viability, T/C (second compound 0.01 µM, first compound 10 µM) was 34.3%. The viability, T/C [1] was 99.7%, the viability, T/C [2] was 110% and the viability, T/C [3] was 126%. It also gave a viability, T/C [4] of 104%, a viability, T/C (second compound 0.0316 µM, first compound 3.16 µM) of 67.2% and a viability, T/C (second compound 0.0316 µM, first compound 10 µM) of 35.1%. For the same compound, the viability, T/C [5] was 116%, the viability, T/C [6] was 104% and the viability, T/C [7] was 132%. It also gave a viability, T/C [8] of 110%, a viability, T/C (second compound 0.1 µM, first compound 3.16 µM) of 63.2% and a viability, T/C (second compound 0.1 µM, first compound 10 µM) of 35.4%. The viability, T/C [9] was 106%, the viability, T/C [10] was 97.1% and the viability, T/C [11] was 127%. The viability, T/C [12] was 107%, the viability, T/C (second compound 0.316 µM, first compound 3.16 µM) was 67.5% and the viability, T/C (second compound 0.316 µM, first compound 10 µM) was 35.9%. It also gave a viability, T/C [13] of 101%, a viability, T/C [14] of 95.8% and a viability, T/C [15] of 115%. For the same compound, the viability, T/C [16] was 90.1%, the viability, T/C (second compound 1 µM, first compound 3.16 µM) was 62.9% and the viability, T/C (second compound 1 µM, first compound 10 µM) was 35.5%.
In the case of `C=CC(=O)N1CCN(c2nc(OCC3CCCN3C)nc3c(F)c(-c4nc(N)cc(C)c4C(F)(F)F)c(Cl)cc23)C(C)C1` (stereo unspecified) + C#Cc1c(F)ccc2cc(O)cc(-c3ncc4c(N5CC6CCC(C5)N6)nc(OCC56CCCN5CC(F)C6)nc4c3F)c12, the IC50 (second compound 0.0316 µM) is reported as > 1 µM, the IC50 (second compound 0.1 µM) is reported as > 1 µM and the IC50 (second compound 0.316 µM) is reported as > 1 µM. For the same compound, the IC50 (second compound 1 µM) was > 1 µM, the IC50 (second compound 3.16 µM) was > 1 µM and the IC50 (second compound 10 µM) was > 1 µM. It also gave a viability, T/C (second compound 0.0316 µM, first compound 0.00316 µM) of 106%, a viability, T/C (second compound 0.0316 µM, first compound 0.01 µM) of 99.5% and a viability, T/C [1] of 88.7%. For the same compound, the viability, T/C [2] was 98.2%, the viability, T/C [3] was 108% and the viability, T/C [4] was 91.5%. It also gave a viability, T/C (second compound 0.1 µM, first compound 0.00316 µM) of 108%, a viability, T/C (second compound 0.1 µM, first compound 0.01 µM) of 107% and a viability, T/C [5] of 91.1%. It also gave a viability, T/C [6] of 95.9%, a viability, T/C [7] of 83.8% and a viability, T/C [8] of 83.3%. It also gave a viability, T/C (second compound 0.316 µM, first compound 0.00316 µM) of 105%, a viability, T/C (second compound 0.316 µM, first compound 0.01 µM) of 99.5% and a viability, T/C [9] of 102%. For the same compound, the viability, T/C [10] was 99.7%, the viability, T/C [11] was 97% and the viability, T/C [12] was 80.7%. The viability, T/C (second compound 1 µM, first compound 0.00316 µM) was 97%, the viability, T/C (second compound 1 µM, first compound 0.01 µM) was 111% and the viability, T/C [13] was 117%. The viability, T/C [14] was 103%, the viability, T/C [15] was 92.5% and the viability, T/C [16] was 96.8%. For the same compound, the viability, T/C (second compound 3.16 µM, first compound 0.00316 µM) was 96.9%, the viability, T/C (second compound 3.16 µM, first compound 0.01 µM) was 107% and the viability, T/C (second compound 3.16 µM, first compound 0.0316 µM) was 113%. It also gave a viability, T/C (second compound 3.16 µM, first compound 0.1 µM) of 102%, a viability, T/C (second compound 3.16 µM, first compound 0.316 µM) of 110% and a viability, T/C (second compound 3.16 µM, first compound 1 µM) of 92.7%. For the same compound, the viability, T/C (second compound 10 µM, first compound 0.00316 µM) was 118%, the viability, T/C (second compound 10 µM, first compound 0.01 µM) was 82.8% and the viability, T/C (second compound 10 µM, first compound 0.0316 µM) was 91.6%. It also gave a viability, T/C (second compound 10 µM, first compound 0.1 µM) of 96.4%, a viability, T/C (second compound 10 µM, first compound 0.316 µM) of 89.9% and a viability, T/C (second compound 10 µM, first compound 1 µM) of 92.2%.
With `CC(=O)OC12COC1CC(O)C1(C)C(=O)C(O)C3=C(C)C(OC(=O)C(O)C(NC(=O)OC(C)(C)C)c4ccccc4)CC(O)(C(OC(=O)c4ccccc4)C21)C3(C)C` (stereo unspecified) + CCn1c(-c2cc(N3CCN(C)CC3)cnc2C(C)OC)c2c3cc(ccc31)-c1csc(n1)CC(NC(=O)C1CC1C)C(=O)N1CCCC(N1)C(=O)OCC(C)(C)C2 the IC50 (second compound 0.000949 µM) was < 0.0316 µM, the IC50 (second compound 0.003 µM) was < 0.0316 µM and the IC50 (second compound 0.00949 µM) was < 0.0316 µM. For the same compound, the IC50 (second compound 0.03 µM) was < 0.0316 µM, the IC50 (second compound 0.0949 µM) was < 0.0316 µM and the IC50 (second compound 0.3 µM) was < 0.0316 µM. The viability, T/C (second compound 0.000949 µM, first compound 0.0316 µM) was 6.12%, the viability, T/C (second compound 0.000949 µM, first compound 0.1 µM) was 13.9% and the viability, T/C (second compound 0.000949 µM, first compound 0.316 µM) was 13.5%. It also gave a viability, T/C (second compound 0.000949 µM, first compound 1 µM) of 21.5%, a viability, T/C (second compound 0.000949 µM, first compound 3.16 µM) of 29.3% and a viability, T/C (second compound 0.000949 µM, first compound 10 µM) of 55%. The viability, T/C (second compound 0.003 µM, first compound 0.0316 µM) was 6.11%, the viability, T/C (second compound 0.003 µM, first compound 0.1 µM) was 12.1% and the viability, T/C (second compound 0.003 µM, first compound 0.316 µM) was 10.9%. It also gave a viability, T/C (second compound 0.003 µM, first compound 1 µM) of 19.1%, a viability, T/C (second compound 0.003 µM, first compound 3.16 µM) of 35.8% and a viability, T/C (second compound 0.003 µM, first compound 10 µM) of 60.8%. For the same compound, the viability, T/C (second compound 0.00949 µM, first compound 0.0316 µM) was 6.07%, the viability, T/C (second compound 0.00949 µM, first compound 0.1 µM) was 11.1% and the viability, T/C (second compound 0.00949 µM, first compound 0.316 µM) was 13.5%. It also gave a viability, T/C (second compound 0.00949 µM, first compound 1 µM) of 16.5%, a viability, T/C (second compound 0.00949 µM, first compound 3.16 µM) of 42.2% and a viability, T/C (second compound 0.00949 µM, first compound 10 µM) of 54.5%. The viability, T/C (second compound 0.03 µM, first compound 0.0316 µM) was 7.27%, the viability, T/C (second compound 0.03 µM, first compound 0.1 µM) was 8.94% and the viability, T/C (second compound 0.03 µM, first compound 0.316 µM) was 16.7%. For the same compound, the viability, T/C (second compound 0.03 µM, first compound 1 µM) was 20.9%, the viability, T/C (second compound 0.03 µM, first compound 3.16 µM) was 40.2% and the viability, T/C (second compound 0.03 µM, first compound 10 µM) was 60.1%. It also gave a viability, T/C (second compound 0.0949 µM, first compound 0.0316 µM) of 5.65%, a viability, T/C (second compound 0.0949 µM, first compound 0.1 µM) of 11.1% and a viability, T/C (second compound 0.0949 µM, first compound 0.316 µM) of 13.4%. The viability, T/C (second compound 0.0949 µM, first compound 1 µM) was 19.3%, the viability, T/C (second compound 0.0949 µM, first compound 3.16 µM) was 51.7% and the viability, T/C (second compound 0.0949 µM, first compound 10 µM) was 59.8%. The viability, T/C (second compound 0.3 µM, first compound 0.0316 µM) was 7.9%, the viability, T/C (second compound 0.3 µM, first compound 0.1 µM) was 14.3% and the viability, T/C (second compound 0.3 µM, first compound 0.316 µM) was 18.4%. For the same compound, the viability, T/C (second compound 0.3 µM, first compound 1 µM) was 23.5%, the viability, T/C (second compound 0.3 µM, first compound 3.16 µM) was 41.7% and the viability, T/C (second compound 0.3 µM, first compound 10 µM) was 56%.
